In the supplement of paper PMC10307832:

Legend:
Assay in all cases: relative viability (nuclei count vs DMSO), 5 days (fraction); higher = more cells survive
[1] = compound: CCCS(=O)(=O)Nc1ccc(F)c(C(=O)c2c[nH]c3ncc(-c4ccc(Cl)cc4)cc23)c1F [Vemurafenib] + CC(=O)c1c(C)c2cnc(Nc3ccc(N4CCNCC4)cn3)nc2n(C2CCCC2)c1=O [Palbociclib] (partner 0.5 µM)
Outline: (§1)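 Dosing by pin tool came one day after lung cancer cell lines were seeded in 1536-well plates, using either one drug or a fixed anchor-drug dose plus five library-drug doses (not always all listed) in √10 steps. After 5 days, nuclei were counted on 4× images. Relative viability is treated-well nuclei count divided by vehicle-well nuclei count, and values are medians of duplicate plates.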

Vemurafenib + Navitoclax = compound: CCCS(=O)(=O)Nc1ccc(F)c(C(=O)c2c[nH]c3ncc(-c4ccc(Cl)cc4)cc23)c1F [Vemurafenib] + CC1(C)CCC(c2ccc(Cl)cc2)=C(CN2CCN(c3ccc(C(=O)NS(=O)(=O)c4ccc(N[C@H](CCN5CCOCC5)CSc5ccccc5)c(S(=O)(=O)C(F)(F)F)c4)cc3)CC2)C1 [Navitoclax] (partner 0.5 µM)
Outline: as §1

OSI-027 + Bortezomib = compound: COc1cccc2cc(-c3nc([C@H]4CC[C@H](C(=O)O)CC4)n4ncnc(N)c34)[nH]c12 [OSI-027] + CC(C)C[C@H](NC(=O)[C@H](Cc1ccccc1)NC(=O)c1cnccn1)B(O)O [Bortezomib] (partner 0.002 µM)
Outline: as §1

OSI-027 + Decitabine = compound: COc1cccc2cc(-c3nc([C@H]4CC[C@H](C(=O)O)CC4)n4ncnc(N)c34)[nH]c12 [OSI-027] + Nc1ncn([C@H]2C[C@H](O)[C@@H](CO)O2)c(=O)n1 [Decitabine] (partner 2 µM)
Outline: as §1

Cell Line | relative viability ([1]; first compound 0.03162 µM) | relative viability ([1]; first compound 0.3162 µM) | relative viability ([1]; first compound 1 µM) | relative viability (Vemurafenib + Navitoclax; first compound 0.03162 µM) | relative viability (Vemurafenib + Navitoclax; first compound 0.3162 µM) | relative viability (Vemurafenib + Navitoclax; first compound 1 µM) | relative viability (OSI-027 + Bortezomib; first compound 0.01 µM) | relative viability (OSI-027 + Bortezomib; first compound 0.03162 µM) | relative viability (OSI-027 + Bortezomib; first compound 0.1 µM) | relative viability (OSI-027 + Bortezomib; first compound 0.3162 µM) | relative viability (OSI-027 + Bortezomib; first compound 1 µM) | relative viability (OSI-027 + Decitabine; first compound 0.01 µM) | relative viability (OSI-027 + Decitabine; first compound 0.03162 µM) | relative viability (OSI-027 + Decitabine; first compound 0.1 µM) | relative viability (OSI-027 + Decitabine; first compound 0.3162 µM) | relative viability (OSI-027 + Decitabine; first compound 1 µM) | relative viability ([1]; first compound 0.1 µM) | relative viability (Vemurafenib + Navitoclax; first compound 0.1 µM)
EKVX | 0.41 | 0.367 | 0.422 | 0.898 | 1.03 | 0.847 | 1.03 | 0.942 | 1.11 | 0.972 | 0.649 | 0.643 | 0.329 | 0.363 | 0.284 | 0.28 |  | 
EMC-BAC-2 | 0.491 | 0.407 | 0.468 | 1.15 | 1.17 | 1.14 | 1.07 | 1.08 | 0.988 | 0.872 | 0.568 | 0.97 | 0.992 | 0.934 | 0.827 | 0.588 | 0.416 | 1.01
EPLC-272H | 0.34 | 0.413 | 0.353 | 1.05 | 1.13 | 1.06 | 0.871 | 0.978 | 0.764 | 0.849 | 0.688 | 0.324 | 0.321 | 0.344 | 0.298 | 0.256 | 0.3 | 0.916
H3255 | 0.318 | 0.301 | 0.307 | 0.493 | 0.57 | 0.386 | 0.825 | 0.761 | 0.619 | 0.545 | 0.534 | 0.736 | 0.676 | 0.558 | 0.513 | 0.42 |  | 
HARA | 0.26 | 0.304 | 0.318 | 1.09 | 1.13 | 1.14 | 1.12 | 1.1 | 1.15 | 0.979 | 0.67 | 0.529 | 0.432 | 0.558 | 0.422 | 0.346 | 0.17 | 
HCC-15 | 0.717 | 0.673 | 0.775 | 0.679 | 0.736 | 0.73 | 1.07 | 0.988 | 1 | 1.01 | 0.71 | 0.571 | 0.642 | 0.57 | 0.537 | 0.372 | 0.689 | 0.71
HCC-44 | 0.957 | 0.957 | 0.926 | 0.879 | 0.973 | 1.03 | 0.929 | 1 | 0.874 | 0.838 | 0.413 | 0.903 | 0.973 | 0.93 | 0.945 | 0.777 | 0.887 | 0.931
HCC-78 | 0.495 | 0.473 | 0.537 | 0.818 | 1.13 | 0.656 | 0.611 | 0.428 | 0.454 | 0.344 | 0.35 | 0.77 | 0.749 | 0.616 | 0.547 | 0.457 | 0.464 | 0.608
HCC-366 | 0.359 |  | 0.321 | 0.997 |  | 1.03 | 1.18 | 1.2 | 1.03 | 1.07 | 0.733 | 0.345 | 0.367 | 0.381 | 0.265 | 0.228 | 0.332 | 0.983
